For experiment [1], the target named is Histamine H3 receptor (Rattus norvegicus, UniProt Q9QYN8). Description: Binding potency was determined by displacement of [3H]N-alpha-methyl histamine from histamine H3 receptor of rat cortical membranes. Background: Loss of bound radioactivity is the signal in a displacement assay; it reports binding, not function.
Experiment [2] concerns the target Histamine H3 receptor (Homo sapiens, UniProt Q9Y5N1). Description: Binding potency was determined by displacement of [3H]N-alpha-methyl histamine from cloned human histamine H3 receptor expressed in C6 cells.

SMILES strings stand for the structures.

Chain of Histamine H3 receptor (Homo sapiens, UniProt Q9Y5N1) (Q9Y5N1 whole entry): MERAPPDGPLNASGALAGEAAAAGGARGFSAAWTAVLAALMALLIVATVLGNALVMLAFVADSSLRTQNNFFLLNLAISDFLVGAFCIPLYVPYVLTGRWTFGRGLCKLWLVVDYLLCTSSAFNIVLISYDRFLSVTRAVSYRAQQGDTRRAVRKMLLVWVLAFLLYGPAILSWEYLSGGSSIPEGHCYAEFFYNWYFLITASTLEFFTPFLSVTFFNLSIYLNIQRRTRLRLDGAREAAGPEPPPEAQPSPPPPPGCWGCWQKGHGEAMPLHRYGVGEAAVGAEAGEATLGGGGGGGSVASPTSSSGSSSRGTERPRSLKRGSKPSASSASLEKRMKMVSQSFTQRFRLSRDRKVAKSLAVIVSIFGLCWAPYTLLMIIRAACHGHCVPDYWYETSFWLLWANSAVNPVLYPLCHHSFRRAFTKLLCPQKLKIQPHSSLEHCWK
Chain of Histamine H3 receptor (Rattus norvegicus, UniProt Q9QYN8) (Q9QYN8 whole entry): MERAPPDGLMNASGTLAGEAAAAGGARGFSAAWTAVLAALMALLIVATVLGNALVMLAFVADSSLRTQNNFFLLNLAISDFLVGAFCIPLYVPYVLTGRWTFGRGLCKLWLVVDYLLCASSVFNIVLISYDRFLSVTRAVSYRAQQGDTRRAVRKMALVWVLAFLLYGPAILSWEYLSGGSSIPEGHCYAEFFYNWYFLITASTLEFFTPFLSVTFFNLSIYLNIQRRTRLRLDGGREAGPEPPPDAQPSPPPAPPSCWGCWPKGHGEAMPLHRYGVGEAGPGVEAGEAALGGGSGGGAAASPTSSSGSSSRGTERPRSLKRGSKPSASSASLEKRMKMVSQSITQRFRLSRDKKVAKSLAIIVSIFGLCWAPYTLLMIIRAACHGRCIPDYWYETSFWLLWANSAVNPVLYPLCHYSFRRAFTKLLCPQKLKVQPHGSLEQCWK

One may read the Ki as a dissociation constant, usually derived from enzyme kinetics or from competition with a known ligand. The low end stands for tighter binding, the high end for weaker binding. In turn, `CC1CCCCN1CCc1cc2cc(-c3ccc(C(=O)N4CCOCC4)cc3)ccc2o1` (configuration not stated) [(4-{2-[2-(2-Methyl-piperidin-1-yl)-ethyl]-benzofuran-5-yl}-phenyl)-morpholin-4-yl-methanone] yielded a Ki at Histamine H3 receptor [1] of 0.013 µM.

On Histamine H3 receptor [2], `O=C(c1ccc(-c2ccc3oc(CCN4CCCCC4)cc3c2)nc1)N1CCOCC1` [Morpholin-4-yl-{6-[2-(2-piperidin-1-yl-ethyl)-benzofuran-5-yl]-pyridin-3-yl}-methanone] yielded a Ki of 0.013 µM.

The values are drawn from BindingDB's records for doi:10.1016/j.bmcl.2003.11.032 (Abbott Laboratories, 2004).
